From the NIST ThermoML archive (doi:10.1016/j.jct.2016.08.005)
Numbers after ± are expanded uncertainties.

Settings: Liquid, Vibrating tube method

c1ccsc1 [thiophene]
Settings	mass density [kg/m3]
283.15 K, 100 kPa	1076.4 ± 0.5
283.15 K, 2000 kPa	1077.94 ± 0.5
283.15 K, 5000 kPa	1080.27 ± 0.51
283.15 K, 7000 kPa	1081.81 ± 0.51
283.15 K, 10000 kPa	1084.09 ± 0.51
283.15 K, 15000 kPa	1087.78 ± 0.51
283.15 K, 20000 kPa	1091.37 ± 0.52
283.15 K, 25000 kPa	1094.82 ± 0.52
283.15 K, 30000 kPa	1098.18 ± 0.53
283.15 K, 35000 kPa	1101.44 ± 0.54
283.15 K, 40000 kPa	1104.61 ± 0.54
283.15 K, 45000 kPa	1107.7 ± 0.55
283.15 K, 50000 kPa	1110.71 ± 0.57
283.15 K, 55000 kPa	1113.62 ± 0.58
283.15 K, 60000 kPa	1116.47 ± 0.59
283.15 K, 65000 kPa	1119.27 ± 0.61
288.15 K, 100 kPa	1070.54 ± 0.5
288.15 K, 2000 kPa	1072.11 ± 0.5
288.15 K, 5000 kPa	1074.53 ± 0.51
288.15 K, 7000 kPa	1076.12 ± 0.51
288.15 K, 10000 kPa	1078.46 ± 0.51
288.15 K, 15000 kPa	1082.24 ± 0.51
288.15 K, 20000 kPa	1085.9 ± 0.52
288.15 K, 25000 kPa	1089.45 ± 0.52
288.15 K, 30000 kPa	1092.91 ± 0.53
288.15 K, 35000 kPa	1096.24 ± 0.53
288.15 K, 40000 kPa	1099.5 ± 0.54
288.15 K, 45000 kPa	1102.65 ± 0.55
288.15 K, 50000 kPa	1105.72 ± 0.56
288.15 K, 55000 kPa	1108.7 ± 0.57
288.15 K, 60000 kPa	1111.61 ± 0.59
288.15 K, 65000 kPa	1114.44 ± 0.6
293.15 K, 100 kPa	1064.59 ± 0.5
293.15 K, 2000 kPa	1066.21 ± 0.5
293.15 K, 5000 kPa	1068.67 ± 0.51
293.15 K, 7000 kPa	1070.33 ± 0.51
293.15 K, 10000 kPa	1072.75 ± 0.51
293.15 K, 15000 kPa	1076.63 ± 0.51
293.15 K, 20000 kPa	1080.39 ± 0.51
293.15 K, 25000 kPa	1084.05 ± 0.52
293.15 K, 30000 kPa	1087.58 ± 0.52
293.15 K, 35000 kPa	1091.01 ± 0.53
293.15 K, 40000 kPa	1094.34 ± 0.54
293.15 K, 45000 kPa	1097.57 ± 0.55
293.15 K, 50000 kPa	1100.7 ± 0.56
293.15 K, 55000 kPa	1103.77 ± 0.57
293.15 K, 60000 kPa	1106.72 ± 0.58
293.15 K, 65000 kPa	1109.63 ± 0.59
298.15 K, 100 kPa	1058.65 ± 0.5
298.15 K, 2000 kPa	1060.32 ± 0.5
298.15 K, 5000 kPa	1062.91 ± 0.5
298.15 K, 7000 kPa	1064.57 ± 0.51
298.15 K, 10000 kPa	1067.05 ± 0.51
298.15 K, 15000 kPa	1071.07 ± 0.51
298.15 K, 20000 kPa	1074.94 ± 0.51
298.15 K, 25000 kPa	1078.69 ± 0.52
298.15 K, 30000 kPa	1082.3 ± 0.52
298.15 K, 35000 kPa	1085.81 ± 0.53
298.15 K, 40000 kPa	1089.21 ± 0.53
298.15 K, 45000 kPa	1092.53 ± 0.54
298.15 K, 50000 kPa	1095.73 ± 0.55
298.15 K, 55000 kPa	1098.86 ± 0.56
298.15 K, 60000 kPa	1101.89 ± 0.57
298.15 K, 65000 kPa	1104.85 ± 0.59
303.15 K, 100 kPa	1052.71 ± 0.5
303.15 K, 2000 kPa	1054.43 ± 0.5
303.15 K, 5000 kPa	1057.07 ± 0.5
303.15 K, 7000 kPa	1058.82 ± 0.5
303.15 K, 10000 kPa	1061.36 ± 0.51
303.15 K, 15000 kPa	1065.48 ± 0.51
303.15 K, 20000 kPa	1069.46 ± 0.51
303.15 K, 25000 kPa	1073.3 ± 0.51
303.15 K, 30000 kPa	1077.03 ± 0.52
303.15 K, 35000 kPa	1080.62 ± 0.53
303.15 K, 40000 kPa	1084.1 ± 0.53
303.15 K, 45000 kPa	1087.49 ± 0.54
303.15 K, 50000 kPa	1090.79 ± 0.55
303.15 K, 55000 kPa	1093.96 ± 0.56
303.15 K, 60000 kPa	1097.06 ± 0.57
303.15 K, 65000 kPa	1100.09 ± 0.58
308.15 K, 100 kPa	1046.7 ± 0.5
308.15 K, 2000 kPa	1048.48 ± 0.5
308.15 K, 5000 kPa	1051.21 ± 0.5
308.15 K, 7000 kPa	1052.99 ± 0.5
308.15 K, 10000 kPa	1055.61 ± 0.51
308.15 K, 15000 kPa	1059.87 ± 0.51
308.15 K, 20000 kPa	1063.97 ± 0.51
308.15 K, 25000 kPa	1067.92 ± 0.51
308.15 K, 30000 kPa	1071.73 ± 0.52
308.15 K, 35000 kPa	1075.4 ± 0.52
308.15 K, 40000 kPa	1078.99 ± 0.53
308.15 K, 45000 kPa	1082.45 ± 0.54
308.15 K, 50000 kPa	1085.8 ± 0.54
308.15 K, 55000 kPa	1089.07 ± 0.55
308.15 K, 60000 kPa	1092.23 ± 0.56
308.15 K, 65000 kPa	1095.31 ± 0.57
313.15 K, 100 kPa	1040.68 ± 0.5
313.15 K, 2000 kPa	1042.52 ± 0.5
313.15 K, 5000 kPa	1045.35 ± 0.5
313.15 K, 7000 kPa	1047.19 ± 0.5
313.15 K, 10000 kPa	1049.91 ± 0.5
313.15 K, 15000 kPa	1054.25 ± 0.51
313.15 K, 20000 kPa	1058.47 ± 0.51
313.15 K, 25000 kPa	1062.52 ± 0.51
313.15 K, 30000 kPa	1066.43 ± 0.52
313.15 K, 35000 kPa	1070.21 ± 0.52
313.15 K, 40000 kPa	1073.88 ± 0.53
313.15 K, 45000 kPa	1077.41 ± 0.53
313.15 K, 50000 kPa	1080.86 ± 0.54
313.15 K, 55000 kPa	1084.2 ± 0.55
313.15 K, 60000 kPa	1087.42 ± 0.56
313.15 K, 65000 kPa	1090.59 ± 0.57
318.15 K, 100 kPa	1034.64 ± 0.5
318.15 K, 2000 kPa	1036.54 ± 0.5
318.15 K, 5000 kPa	1039.44 ± 0.5
318.15 K, 7000 kPa	1041.36 ± 0.5
318.15 K, 10000 kPa	1044.15 ± 0.5
318.15 K, 15000 kPa	1048.65 ± 0.51
318.15 K, 20000 kPa	1052.97 ± 0.51
318.15 K, 25000 kPa	1057.12 ± 0.51
318.15 K, 30000 kPa	1061.15 ± 0.51
318.15 K, 35000 kPa	1065.02 ± 0.52
318.15 K, 40000 kPa	1068.77 ± 0.52
318.15 K, 45000 kPa	1072.41 ± 0.53
318.15 K, 50000 kPa	1075.92 ± 0.54
318.15 K, 55000 kPa	1079.33 ± 0.54
318.15 K, 60000 kPa	1082.65 ± 0.55
318.15 K, 65000 kPa	1085.87 ± 0.56
323.15 K, 100 kPa	1028.59 ± 0.5
323.15 K, 2000 kPa	1030.52 ± 0.5
323.15 K, 5000 kPa	1033.54 ± 0.5
323.15 K, 7000 kPa	1035.52 ± 0.5
323.15 K, 10000 kPa	1038.37 ± 0.5
323.15 K, 15000 kPa	1042.99 ± 0.51
323.15 K, 20000 kPa	1047.45 ± 0.51
323.15 K, 25000 kPa	1051.73 ± 0.51
323.15 K, 30000 kPa	1055.85 ± 0.51
323.15 K, 35000 kPa	1059.82 ± 0.52
323.15 K, 40000 kPa	1063.67 ± 0.52
323.15 K, 45000 kPa	1067.38 ± 0.53
323.15 K, 50000 kPa	1070.98 ± 0.53
323.15 K, 55000 kPa	1074.48 ± 0.54
323.15 K, 60000 kPa	1077.86 ± 0.55
323.15 K, 65000 kPa	1081.13 ± 0.56
328.15 K, 100 kPa	1022.43 ± 0.5
328.15 K, 2000 kPa	1024.49 ± 0.5
328.15 K, 5000 kPa	1027.57 ± 0.5
328.15 K, 7000 kPa	1029.6 ± 0.5
328.15 K, 10000 kPa	1032.58 ± 0.5
328.15 K, 15000 kPa	1037.33 ± 0.5
328.15 K, 20000 kPa	1041.91 ± 0.51
328.15 K, 25000 kPa	1046.31 ± 0.51
328.15 K, 30000 kPa	1050.54 ± 0.51
328.15 K, 35000 kPa	1054.61 ± 0.51
328.15 K, 40000 kPa	1058.55 ± 0.52
328.15 K, 45000 kPa	1062.36 ± 0.52
328.15 K, 50000 kPa	1066.05 ± 0.53
328.15 K, 55000 kPa	1069.6 ± 0.54
328.15 K, 60000 kPa	1073.07 ± 0.54
328.15 K, 65000 kPa	1076.42 ± 0.55
333.15 K, 100 kPa	1016.27 ± 0.5
333.15 K, 2000 kPa	1018.35 ± 0.5
333.15 K, 5000 kPa	1021.56 ± 0.5
333.15 K, 7000 kPa	1023.65 ± 0.5
333.15 K, 10000 kPa	1026.72 ± 0.5
333.15 K, 15000 kPa	1031.63 ± 0.5
333.15 K, 20000 kPa	1036.34 ± 0.51
333.15 K, 25000 kPa	1040.87 ± 0.51
333.15 K, 30000 kPa	1045.21 ± 0.51
333.15 K, 35000 kPa	1049.39 ± 0.51
333.15 K, 40000 kPa	1053.43 ± 0.52
333.15 K, 45000 kPa	1057.32 ± 0.52
333.15 K, 50000 kPa	1061.09 ± 0.53
333.15 K, 55000 kPa	1064.72 ± 0.53
333.15 K, 60000 kPa	1068.26 ± 0.54
333.15 K, 65000 kPa	1071.7 ± 0.55
338.15 K, 100 kPa	1010.08 ± 0.5
338.15 K, 2000 kPa	1012.22 ± 0.5
338.15 K, 5000 kPa	1015.53 ± 0.5
338.15 K, 7000 kPa	1017.69 ± 0.5
338.15 K, 10000 kPa	1020.86 ± 0.5
338.15 K, 15000 kPa	1025.92 ± 0.5
338.15 K, 20000 kPa	1030.78 ± 0.5
338.15 K, 25000 kPa	1035.41 ± 0.51
338.15 K, 30000 kPa	1039.88 ± 0.51
338.15 K, 35000 kPa	1044.17 ± 0.51
338.15 K, 40000 kPa	1048.31 ± 0.51
338.15 K, 45000 kPa	1052.28 ± 0.52
338.15 K, 50000 kPa	1056.13 ± 0.52
338.15 K, 55000 kPa	1059.87 ± 0.53
338.15 K, 60000 kPa	1063.48 ± 0.53
338.15 K, 65000 kPa	1066.99 ± 0.54
